Results as given in patent US8815872B2, “Macrocyclics pyrimidines as aurora kinase inhibitors” (Merck Patent GmbH, priority 2008, dated 2014).
Values joined by “and” are separate entries in the source; they are usually repeats but may differ in a detail not shown here. Equal values may be shown once.

How the values were obtained:
Assay type in all cases: biochemical
[1] = molecular target: T1, PIM-2 (Homo sapiens, UniProt Q9P1W9); experiment: Other kinases, inhibition at 1 μM (Table 3)
T1 construct: purchased Caliper Life Sciences
Procedure: (§1) The Aurora and other kinase assays described here were performed on two Caliper Life Sciences systems, the LC3000 and the Desktop Profiler. These provide data on enzyme activity via measurement of the relative amounts of phosphorylated or unphosphorylated fluorescently labelled substrate peptide at the end of an enzymatic reaction. These different states of peptide are resolved by applying a potential difference across the sample. The presence of a charged phosphate group on the product (as opposed to the substrate) causes a different peptide mobility between the two peptides. This is visualized by excitation of a fluorescent label on the substrate and product peptides and represented as peaks within the analysis software.
(§2) The Desktop Profiler utilizes the same principal as the LC 3000 for calculating percentage conversion of a substrate to product. Caliper Life Sciences provided proprietary flash frozen pre-made 384 well plates containing selected kinases. Each column in the 384 well plate contained a particular selected kinase. A second plate, the ‘substrate plate’ contained a mix of fluorescently labeled peptide substrate and ATP. These were arranged in columns so that transfer for substrate plate to enzyme plate provided the correct enzyme with the correct substrate/ATP concentration.
(§3) Compounds were added to a thawed enzyme plate in the desired format, in single concentrations. Reactions were initiated by transfer of the ubstrate/ATP mix from the substrate plate. The enzyme plate was incubated for 90 mins at 25 °C. The reaction was stopped by addition of […] of Stop Buffer (100 mM HEPES pH 7.5, 0.015% Brij-35, 10 mM EDTA (Sigma, E7889)).
(§4) Plates were read in a manner identical to that of the LC3000, and the ratio between substrate and product peaks provided the activity of the enzyme in that well. This was best represented by a plate heat map which colors each well by percent inhibition as compared to positive and negative controls (no inhibitors and no ATP respectively).

[2] = test system: smMLCK; experiment: Other kinases, inhibition at 1 μM (Table 3)
Procedure: as §1, §2, §3, §4

[3] = molecular target: T2, JNK1-alpha-1 (Homo sapiens, UniProt P45983); experiment: Other kinases, inhibition at 1 μM (Table 3)
T2 construct: purchased Caliper Life Sciences
Procedure: as §1, §2, §3, §4

[4] = molecular target: T3, SAPK2-beta (Homo sapiens, UniProt Q15759); experiment: Other kinases, inhibition at 1 μM (Table 3)
T3 construct: purchased Caliper Life Sciences
Procedure: as §1, §2, §3, §4

[5] = molecular target: T4, HIPK2 (Homo sapiens, UniProt Q9H2X6); experiment: Other kinases, inhibition at 1 μM (Table 3)
T4 construct: purchased Caliper Life Sciences
Procedure: as §1, §2, §3, §4

[6] = molecular target: T5, PLK1 (Homo sapiens, UniProt P53350); experiment: Other kinases, inhibition at 1 μM (Table 3)
T5 construct: purchased Caliper Life Sciences
Procedure: as §1, §2, §3, §4

[7] = molecular target: T6, MKK1 (Homo sapiens, UniProt Q02750); experiment: Other kinases, inhibition at 1 μM (Table 3)
T6 construct: purchased Caliper Life Sciences
Procedure: as §1, §2, §3, §4

[8] = molecular target: T7, EphA2 (Homo sapiens, UniProt P29317); experiment: Other kinases, inhibition at 1 μM (Table 3)
T7 construct: purchased Caliper Life Sciences
Procedure: as §1, §2, §3, §4

[9] = molecular target: T8, EphB3 (Homo sapiens, UniProt P54753); experiment: Other kinases, inhibition at 1 μM (Table 3)
T8 construct: purchased Caliper Life Sciences
Procedure: as §1, §2, §3, §4

[10] = molecular target: T9, MST2 (Homo sapiens, UniProt Q13188); experiment: Other kinases, inhibition at 1 μM (Table 3)
T9 construct: purchased Caliper Life Sciences
Procedure: as §1, §2, §3, §4

[11] = molecular target: T10, CAMKKb (Homo sapiens, UniProt Q96RR4); experiment: Other kinases, inhibition at 1 μM (Table 3)
T10 construct: purchased Caliper Life Sciences
Procedure: as §1, §2, §3, §4

[12] = molecular target: T11, SAPK2-alpha (Homo sapiens, UniProt Q16539); experiment: Other kinases, inhibition at 1 μM (Table 3)
T11 construct: purchased Caliper Life Sciences
Procedure: as §1, §2, §3, §4

[13] = molecular target: T12, PKC-zeta (Homo sapiens, UniProt Q05513); experiment: Other kinases, inhibition at 1 μM (Table 3)
T12 construct: purchased Caliper Life Sciences
Procedure: as §1, §2, §3, §4

[14] = molecular target: T13, MSK1 (Homo sapiens, UniProt O75582); experiment: Other kinases, inhibition at 1 μM (Table 3)
T13 construct: purchased Caliper Life Sciences
Procedure: as §1, §2, §3, §4

[15] = test system: AMPK; experiment: Other kinases, inhibition at 1 μM (Table 3)
Procedure: as §1, §2, §3, §4

[16] = molecular target: T14, PAK6 (Homo sapiens, UniProt Q9NQU5); experiment: Other kinases, inhibition at 1 μM (Table 3)
T14 construct: purchased Caliper Life Sciences
Procedure: as §1, §2, §3, §4

[17] = molecular target: T15, PKC-alpha (Homo sapiens, UniProt P17252); experiment: Other kinases, inhibition at 1 μM (Table 3)
T15 construct: purchased Caliper Life Sciences
Procedure: as §1, §2, §3, §4

[18] = molecular target: T16, GSK3-beta (Homo sapiens, UniProt P49841); experiment: Other kinases, inhibition at 1 μM (Table 3)
T16 construct: purchased Caliper Life Sciences
Procedure: as §1, §2, §3, §4

[19] = molecular target: T17, PKB-alpha (Homo sapiens, UniProt P31749); experiment: Other kinases, inhibition at 1 μM (Table 3)
T17 construct: purchased Caliper Life Sciences
Procedure: as §1, §2, §3, §4

[20] = molecular target: T18, ROCK-II (Homo sapiens, UniProt O75116); experiment: Other kinases, inhibition at 1 μM (Table 3)
T18 construct: purchased Caliper Life Sciences
Procedure: as §1, §2, §3, §4

[21] = test system: CK2; experiment: Other kinases, inhibition at 1 μM (Table 3)
Procedure: as §1, §2, §3, §4

[22] = molecular target: T19, CK1-delta (Homo sapiens, UniProt P48730); experiment: Other kinases, inhibition at 1 μM (Table 3)
T19 construct: purchased Caliper Life Sciences
Procedure: as §1, §2, §3, §4

[23] = molecular target: T20, PKD2 (Homo sapiens, UniProt Q9BZL6); experiment: Other kinases, inhibition at 1 μM (Table 3)
T20 construct: purchased Caliper Life Sciences
Procedure: as §1, §2, §3, §4

[24] = molecular target: T21, PRK2 (Homo sapiens, UniProt Q16513); experiment: Other kinases, inhibition at 1 μM (Table 3)
T21 construct: purchased Caliper Life Sciences
Procedure: as §1, §2, §3, §4

[25] = molecular target: T22, SRPK1 (Homo sapiens, UniProt Q96SB4); experiment: Other kinases, inhibition at 1 μM (Table 3)
T22 construct: purchased Caliper Life Sciences
Procedure: as §1, §2, §3, §4

[26] = molecular target: T23, PAK5 (Homo sapiens, UniProt Q9P286); experiment: Other kinases, inhibition at 1 μM (Table 3)
T23 construct: purchased Caliper Life Sciences
Procedure: as §1, §2, §3, §4

[27] = molecular target: T24, YES1 (Homo sapiens, UniProt P07947); experiment: Other kinases, inhibition at 1 μM (Table 3)
T24 construct: purchased Caliper Life Sciences
Procedure: as §1, §2, §3, §4

[28] = molecular target: T25, IRAK4(h) (Homo sapiens, UniProt Q9NWZ3); experiment: Inhibition of other kinases IC50 (Table 2)
T25 construct: purchased Caliper Life Sciences
T25 sequence (Q9NWZ3 1-460): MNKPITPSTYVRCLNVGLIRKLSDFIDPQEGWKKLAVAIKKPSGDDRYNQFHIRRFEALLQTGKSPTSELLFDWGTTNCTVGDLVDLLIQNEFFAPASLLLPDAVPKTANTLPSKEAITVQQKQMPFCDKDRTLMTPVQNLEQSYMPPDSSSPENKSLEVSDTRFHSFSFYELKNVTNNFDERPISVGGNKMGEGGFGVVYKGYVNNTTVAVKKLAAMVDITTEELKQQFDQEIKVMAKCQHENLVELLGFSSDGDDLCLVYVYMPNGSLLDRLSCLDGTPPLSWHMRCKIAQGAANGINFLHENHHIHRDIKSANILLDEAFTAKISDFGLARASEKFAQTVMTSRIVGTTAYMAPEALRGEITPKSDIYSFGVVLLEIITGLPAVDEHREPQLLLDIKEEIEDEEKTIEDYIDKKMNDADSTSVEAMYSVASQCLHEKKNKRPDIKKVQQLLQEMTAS
Procedure: as §1

T5 sequence (P53350 whole entry, species assumed): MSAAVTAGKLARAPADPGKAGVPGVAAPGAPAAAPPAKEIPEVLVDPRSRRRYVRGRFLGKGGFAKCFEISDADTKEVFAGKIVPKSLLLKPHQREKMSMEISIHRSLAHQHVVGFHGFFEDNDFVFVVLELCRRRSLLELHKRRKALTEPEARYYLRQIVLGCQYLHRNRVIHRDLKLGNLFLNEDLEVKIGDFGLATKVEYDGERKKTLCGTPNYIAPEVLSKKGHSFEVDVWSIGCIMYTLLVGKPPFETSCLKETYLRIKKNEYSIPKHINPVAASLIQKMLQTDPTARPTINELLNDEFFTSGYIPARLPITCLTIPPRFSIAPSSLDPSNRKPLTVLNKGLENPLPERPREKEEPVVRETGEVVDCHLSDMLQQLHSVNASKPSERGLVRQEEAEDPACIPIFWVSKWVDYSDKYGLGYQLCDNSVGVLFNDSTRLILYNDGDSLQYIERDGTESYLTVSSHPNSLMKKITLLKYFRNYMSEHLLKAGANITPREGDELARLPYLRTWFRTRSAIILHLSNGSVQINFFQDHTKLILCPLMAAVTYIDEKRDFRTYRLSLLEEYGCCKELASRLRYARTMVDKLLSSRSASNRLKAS
T17 sequence (P31749 whole entry, species assumed): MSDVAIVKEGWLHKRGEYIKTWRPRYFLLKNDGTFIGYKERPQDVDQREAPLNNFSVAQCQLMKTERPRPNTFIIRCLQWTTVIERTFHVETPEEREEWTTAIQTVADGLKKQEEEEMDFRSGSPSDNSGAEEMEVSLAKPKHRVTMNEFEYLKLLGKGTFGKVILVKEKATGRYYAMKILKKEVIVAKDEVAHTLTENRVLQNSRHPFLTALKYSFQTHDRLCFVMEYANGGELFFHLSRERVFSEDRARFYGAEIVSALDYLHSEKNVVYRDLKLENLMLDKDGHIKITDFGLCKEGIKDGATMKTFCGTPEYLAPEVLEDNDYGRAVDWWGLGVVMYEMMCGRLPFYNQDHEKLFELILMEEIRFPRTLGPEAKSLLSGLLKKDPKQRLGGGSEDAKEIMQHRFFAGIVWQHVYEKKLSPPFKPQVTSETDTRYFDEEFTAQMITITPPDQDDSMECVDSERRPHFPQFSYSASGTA
T11 sequence (Q16539 whole entry): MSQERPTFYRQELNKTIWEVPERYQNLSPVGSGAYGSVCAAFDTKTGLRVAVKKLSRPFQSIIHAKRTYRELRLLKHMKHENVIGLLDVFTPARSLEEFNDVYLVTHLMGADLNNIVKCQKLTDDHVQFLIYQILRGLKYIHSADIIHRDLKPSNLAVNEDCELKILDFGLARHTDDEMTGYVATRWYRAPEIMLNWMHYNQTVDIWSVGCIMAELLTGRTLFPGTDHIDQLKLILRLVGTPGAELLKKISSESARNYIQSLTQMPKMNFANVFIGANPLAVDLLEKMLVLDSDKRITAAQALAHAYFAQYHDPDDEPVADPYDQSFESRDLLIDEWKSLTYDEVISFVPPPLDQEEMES
T16 sequence (P49841 whole entry, species assumed): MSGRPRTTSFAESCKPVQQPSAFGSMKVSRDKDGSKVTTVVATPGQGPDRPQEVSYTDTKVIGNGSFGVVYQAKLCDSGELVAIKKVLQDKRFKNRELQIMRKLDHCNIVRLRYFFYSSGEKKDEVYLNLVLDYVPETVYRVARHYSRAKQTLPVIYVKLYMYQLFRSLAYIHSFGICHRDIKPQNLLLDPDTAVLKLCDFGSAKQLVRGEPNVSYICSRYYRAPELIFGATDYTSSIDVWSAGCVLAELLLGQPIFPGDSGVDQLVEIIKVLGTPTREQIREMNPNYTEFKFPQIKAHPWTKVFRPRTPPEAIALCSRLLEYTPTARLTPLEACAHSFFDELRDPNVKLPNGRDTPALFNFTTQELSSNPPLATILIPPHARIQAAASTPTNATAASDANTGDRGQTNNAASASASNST
T3 sequence (Q15759 whole entry): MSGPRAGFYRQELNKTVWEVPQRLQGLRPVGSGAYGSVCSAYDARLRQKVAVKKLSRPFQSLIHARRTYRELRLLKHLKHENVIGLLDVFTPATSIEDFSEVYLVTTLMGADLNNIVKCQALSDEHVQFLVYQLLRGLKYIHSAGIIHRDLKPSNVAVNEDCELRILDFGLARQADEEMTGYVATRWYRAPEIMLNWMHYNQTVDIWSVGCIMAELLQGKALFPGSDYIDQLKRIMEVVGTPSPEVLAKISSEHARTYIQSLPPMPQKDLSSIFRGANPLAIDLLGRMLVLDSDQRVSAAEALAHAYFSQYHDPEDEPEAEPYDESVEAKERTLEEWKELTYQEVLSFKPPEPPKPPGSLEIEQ
T12 sequence (Q05513 whole entry): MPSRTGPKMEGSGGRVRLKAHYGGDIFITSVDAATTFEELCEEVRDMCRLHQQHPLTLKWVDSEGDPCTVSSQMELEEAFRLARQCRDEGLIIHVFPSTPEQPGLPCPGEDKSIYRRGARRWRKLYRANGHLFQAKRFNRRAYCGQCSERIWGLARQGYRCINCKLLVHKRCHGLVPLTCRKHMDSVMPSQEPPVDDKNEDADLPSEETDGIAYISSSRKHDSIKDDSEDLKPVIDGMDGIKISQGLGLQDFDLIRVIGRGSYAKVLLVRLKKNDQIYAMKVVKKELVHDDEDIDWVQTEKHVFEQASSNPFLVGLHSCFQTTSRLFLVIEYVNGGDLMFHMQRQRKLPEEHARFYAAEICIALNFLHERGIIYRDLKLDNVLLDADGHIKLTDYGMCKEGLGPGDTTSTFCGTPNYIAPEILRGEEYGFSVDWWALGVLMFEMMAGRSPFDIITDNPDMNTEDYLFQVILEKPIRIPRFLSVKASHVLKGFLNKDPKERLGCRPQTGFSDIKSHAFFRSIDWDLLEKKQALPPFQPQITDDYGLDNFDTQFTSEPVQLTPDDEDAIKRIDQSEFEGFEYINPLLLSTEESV
T18 sequence (O75116 whole entry, species assumed): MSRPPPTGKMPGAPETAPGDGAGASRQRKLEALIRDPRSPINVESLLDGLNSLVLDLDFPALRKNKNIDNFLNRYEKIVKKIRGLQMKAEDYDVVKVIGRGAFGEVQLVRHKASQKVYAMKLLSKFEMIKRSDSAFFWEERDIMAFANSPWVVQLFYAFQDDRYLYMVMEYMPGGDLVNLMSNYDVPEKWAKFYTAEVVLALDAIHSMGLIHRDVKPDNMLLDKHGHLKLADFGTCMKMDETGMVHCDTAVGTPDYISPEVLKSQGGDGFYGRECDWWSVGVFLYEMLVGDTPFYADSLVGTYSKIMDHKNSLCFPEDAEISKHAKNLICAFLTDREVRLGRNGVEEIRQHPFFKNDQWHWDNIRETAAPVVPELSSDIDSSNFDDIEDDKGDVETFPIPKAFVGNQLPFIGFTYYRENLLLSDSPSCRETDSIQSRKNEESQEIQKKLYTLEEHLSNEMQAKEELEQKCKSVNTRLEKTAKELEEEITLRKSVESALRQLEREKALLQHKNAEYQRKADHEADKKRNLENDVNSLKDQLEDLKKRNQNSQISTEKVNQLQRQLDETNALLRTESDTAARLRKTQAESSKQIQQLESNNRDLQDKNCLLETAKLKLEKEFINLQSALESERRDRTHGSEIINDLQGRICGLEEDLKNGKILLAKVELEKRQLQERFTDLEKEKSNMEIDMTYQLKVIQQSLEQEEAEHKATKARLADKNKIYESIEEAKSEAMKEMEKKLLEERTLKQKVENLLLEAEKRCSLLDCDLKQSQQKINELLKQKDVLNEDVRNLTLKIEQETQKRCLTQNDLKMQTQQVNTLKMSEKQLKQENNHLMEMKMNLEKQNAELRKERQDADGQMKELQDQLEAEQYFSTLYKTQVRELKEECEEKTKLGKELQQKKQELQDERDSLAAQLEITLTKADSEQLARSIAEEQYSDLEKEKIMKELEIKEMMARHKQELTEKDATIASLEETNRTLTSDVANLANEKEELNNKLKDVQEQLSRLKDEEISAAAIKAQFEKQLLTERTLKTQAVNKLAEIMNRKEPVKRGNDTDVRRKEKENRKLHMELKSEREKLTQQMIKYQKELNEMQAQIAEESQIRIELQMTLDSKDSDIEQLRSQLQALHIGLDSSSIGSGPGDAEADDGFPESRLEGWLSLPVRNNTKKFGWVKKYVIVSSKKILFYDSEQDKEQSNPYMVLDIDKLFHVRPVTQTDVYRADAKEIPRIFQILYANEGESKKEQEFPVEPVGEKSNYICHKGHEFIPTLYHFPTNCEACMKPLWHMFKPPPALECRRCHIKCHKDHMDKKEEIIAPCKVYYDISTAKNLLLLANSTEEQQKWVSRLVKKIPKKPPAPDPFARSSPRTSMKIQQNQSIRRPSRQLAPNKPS

Row | Structure (SMILES) | % inhibition PIM-2 [1] [%] | % inhibition smMLCK [2] [%] | inhibition at 1 µM [3] [%] | inhibition at 1 µM [4] [%] | inhibition at 1 µM [5] [%] | % inhibition PLK1 [6] | % inhibition MKK1 [7] [%] | inhibition at 1 µM [8] [%] | inhibition at 1 µM [9] [%] | % inhibition MST2 [10] [%] | % inhibition CAMKKb [11] [%] | inhibition at 1 µM [12] [%] | % inhibition PKC-zeta [13] [%] | % inhibition MSK1 [14] [%] | % inhibition AMPK [15] [%] | % inhibition PAK6 [16] [%] | % inhibition PKC-alpha [17] [%] | inhibition at 1 µM [18] [%] | % inhibition PKB-alpha [19] [%] | inhibition at 1 µM [20] [%] | other results
1 | Fc1cnc2nc1NC1CCCC(C1)OC/C=C\COc1cccc(c1)N2 (single isomer, unassigned) [Example 33, (16Z)-6-fluoro-14,19-dioxa-2,4,8,26-tetraazatetracyclo[18.3.1.1˜3,7˜0.1˜9,13˜]hexacosa-1(24),3(26),4,6,16,20,22-heptaene] | 85 | 92 | 75 | 83 | 68 | 63% and 92% | 71 | 81 | 54 | 61 | 81 | 76 | 104 | 96 | 76 | 90 | 57 | 57 | 85 | 79 | % inhibition CK2 [21]: 96%; % inhibition CK1-delta [22]: 85%; % inhibition PKD2 [23]: 78%; inhibition at 1 µM [24]: 97%; inhibition at 1 µM [25]: 83%; % inhibition PAK5 [26]: 92%; inhibition at 1 µM [27]: 49%
2 | NC(=O)[C@H]1[C@H]2C[C@H]3[C@H]1Nc1nc(ncc1F)Nc1cccc(c1)CSS[C@@H]3C2 [Example 10] | 70 | 39 | 14 | 81 | 23 | 4% and 12% | 13 | 25 | 4 | 8 | 73 | 89 | 99 | 77 | 38 | 81 | 56 | 19 | 93 | 75 | % inhibition CK2 [21]: 91%; % inhibition CK1-delta [22]: 92%; % inhibition PKD2 [23]: 73%; inhibition at 1 µM [24]: 43%; inhibition at 1 µM [25]: 65%; % inhibition PAK5 [26]: 72%; inhibition at 1 µM [27]: 9%
3 | NC(=O)[C@H]1[C@H]2C[C@H]3[C@H]1Nc1nc(ncc1F)Nc1cccc(c1)OCCS[C@@H]3C2 [Example 20] | – | – | – | – | – | – | – | – | – | – | – | – | – | – | – | – | – | – | – | – | IC50 [28]: 0.101 to 1 µM
4 | NC(=O)[C@H]1[C@H]2C[C@H]3[C@H]1Nc1nc(ncc1F)Nc1cccc(c1)NC(=O)CS[C@@H]3C2 [Example 27] | – | – | – | – | – | – | – | – | – | – | – | – | – | – | – | – | – | – | – | – | IC50 [28]: 0.001 to 0.1 µM
